The nature of this data set: Hygroscopicity: water content before and after 24 hours in a desiccator at 60° C. and humidity 100%. In kind it is physicochemical. As to conditions: for Water content (%) after 24 hours: after 24 hours in a desiccator at a temperature of 60° C. and a humidity of 100%; for Water content (%) at the start: obtained crystals, before conditioning. The method, then:
Aripiprazole anhydride crystals B have a low hygroscopicity; and, for example, maintain a water content of 0.4% or less, and further 0.1% or less, after 24 hours of conditioning in a desiccator set at a temperature of 60° C. and a humidity of 100%. Known methods for measuring water content can be used as long as they are commonly used for measuring the water content of crystals. For example, a method such as the Karl Fischer method can be used.
Fine particles of the crystals after heating treatment (drying) are the fine particles of anhydride crystals B of aripiprazole. These particles have the physicochemical properties (1) to (5) described above, and also have a low hygroscopicity; specifically, the water content thereof after 24 hours of conditioning in a desiccator adjusted to a temperature of 60° C. and a humidity of 100% is 0.4% or less, further 0.2% or less, and furthremore 0.1% or less.

For the compound `O=C1CCc2ccc(OCCCCN3CCN(c4cccc(Cl)c4Cl)CC3)cc2N1` [Aripiprazole anhydride crystals B, 7-{4-[4-(2,3-dichlorophenyl)-1-piperazinyl]butoxy}-3,4-dihydrocarbostyril], the “Water content (%) after 24 hours” value is given as at most 0.4%. The “Water content (%) after 24 hours” value (listed as anhydride crystals B of aripiprazole) is at most 0.4%.
Regarding `O=C1CCc2ccc(OCCCCN3CCN(c4cccc(Cl)c4Cl)CC3)cc2N1` [Example 1, 7-{4-[4-(2,3-dichlorophenyl)-1-piperazinyl]butoxy}-3,4-dihydrocarbostyril], the “Water content (%) after 24 hours” value turned out to be 0.10% and the “Water content (%) at the start” value was found to be 0.11%. In addition, where the note is “left to stand for 24 hours in a desiccator at 60° C. and a humidity of 100%”, the hygroscopicity was below 4%.
In the case of `O=C1CCc2ccc(OCCCCN3CCN(c4cccc(Cl)c4Cl)CC3)cc2N1` [Example 2, 7-{4-[4-(2,3-dichlorophenyl)-1-piperazinyl]butoxy}-3,4-dihydrocarbostyril], the “Water content (%) after 24 hours” value is listed as at most 0.01% and the “Water content (%) at the start” value was found to be 0.01%.
Turning to `O=C1CCc2ccc(OCCCCN3CCN(c4cccc(Cl)c4Cl)CC3)cc2N1` [Example 3, 7-{4-[4-(2,3-dichlorophenyl)-1-piperazinyl]butoxy}-3,4-dihydrocarbostyril], the “Water content (%) after 24 hours” value is 0.17% and the “Water content (%) at the start” value was 0.08%.

The values above are taken from patent US9278934B2, “Method for producing fine particles of aripiprazole anhydride crystals B” (OTSUKA PHARMACEUTICAL CO., LTD., priority 2011, dated 2016).
